Laboratory results published in US8796175B2, “Method for enhancing plant intrinsic defense” (Bayer CropScience AG, priority 2008, dated 2014).

System: Tomato (Solanum lycopersicum 'Rentita')
Experiment: Root growth test of tomatoes under oxygen deficiency conditions in the nutrient solution
Format: in vivo
Conditions: 1.0 mg a.i./plant, floating box, nutrient solution not aerated (oxygen deficiency stress), average of maximum root length per plant
Protocol: To prepare a suitable solution of the preparation, 1 part by weight of active substance is mixed with water to give the desired concentration.
Tomato seeds (Solanum lycopersicum ‘Rentita’) are grown in rock wool. After germination, the rock wool blocks are transferred into a floating box provided with the solution of the preparation and grown on under suitable climatic conditions.
The nutrient solution of the floating box was not aerated (oxygen deficiency stress).
After the desired period of time, the maximum length of the root per tomato plant is measured, and the average root length per floating box and treatment is calculated.

Question: How did the “Root growth of tomatoes: Length in cm after 4 d” value turn out when CC(c1ccc(C(F)(F)F)nc1)S(C)(=O)=NC#N (stereo not shown) [Compound (I-8)] was run?
Answer: 6.7 cm
